The subject of assay [1] is gram-positive bacteria. In words: Paper disc antimicrobial test, summary for gram-positive bacteria. It counts as cell-based. Conditions: against gram-positive bacteria. How it is done:
(§1) An antimicrobial test against the following bacteria and fungi was performed using a paper disc (6 mm, manufactured by ADVANTEC) containing the compound (1a-1).
(§2) (1) Gram-Positive Bacteria • Mycobacterium smegmatis • Bacillus subtilis • Staphylococcus aureus • Micrococcus luteus
(§3) An antimicrobial test was performed with a 10 μg/6 mm disc, using the culture solution of the above bacteria and fungi. The test was conducted in accordance with the method described in Koyama et al., Calpinactam, a new anti-mycobacterial agent, produced by Mortierella alpina FKI-4905, The Journal of Antibiotics (2010) 63, pages 183 to 186.

Another assay deals with Candida albicans. In words: Paper disc antimicrobial test. Conditions: 10 μg/6 mm disc. It counts as cell-based. How it is done:
as §1
(§4) (3) Yeast • Candida albicans
as §3

The next assay relates to yeasts. The assay is described as follows: Paper disc antimicrobial test, summary for yeasts. The note with it: against yeasts. It counts as cell-based. As for the experimental part:
as §1, §4, §3

The subject of a further assay is Micrococcus luteus. In words: Paper disc antimicrobial test. It counts as cell-based. Conditions: 10 μg/6 mm disc. How it is done: as §1, §2, §3
For another assay, the system named is Bacillus subtilis. The assay is described as follows: Paper disc antimicrobial test. It counts as cell-based. The note with it: 10 μg/6 mm disc. As for the experimental part:
as §1, §2, §3

Another assay has as its system Mycobacterium smegmatis. In words: Paper disc antimicrobial test. It counts as cell-based. The note with it: 10 μg/6 mm disc. How it is done:
as §1, §2, §3

For the next assay, the system named is Staphylococcus aureus. The assay is described as follows: Paper disc antimicrobial test. The format is cell-based. Conditions: 10 μg/6 mm disc. How it is done: as §1, §2, §3
Assay [2] relates to gram-positive bacteria. The note with it: against gram-positive bacteria; Non-Patent Literature 1; cited from earlier work.

For the compound `[C-]#[N+][C@@H](Cc1ccc(O)c(-c2cc(C[C@H](NN)C(N)=O)ccc2O)c1)C(N)=O` [compound (1a-1)], the antimicrobial action entry in the assay with gram-positive bacteria [1] and in the assay on yeasts was “showed an antimicrobial action” each time. The Inhibitory zone was 20 mm in the assay with Candida albicans; 26 mm in the assay on Micrococcus luteus; 14 mm in the assay with Bacillus subtilis; 19 mm in the assay on Mycobacterium smegmatis; 23 mm in the assay with Staphylococcus aureus.
As for hazimycin A, the antimicrobial activity entry in the assay with gram-positive bacteria [2] is “had an antimicrobial activity”.

Values taken from patent US20240158341A1, “COMPOUND, MANUFACTURING METHOD THEREFOR, ANTIMICROBIAL AGENT, AND MEDICINAL DRUG” (Murata Manufacturing Co., Ltd., priority 2021, published 2024).
